Source: patent publication US20240239790A1, “7-Morpholino-1,6-Naphthyridin-5-yl Derivatives and Pharmaceutical Compositions Thereof Useful as DNA-PK Inhibitor” (adMare Therapeutics Society, priority 2021, published 2024)
pEC50, pIC50: −log10 of the molar value. Read-outs that look alike come from different tables or passages of the source.

Key:
[1] = tested on: pH2AX induction in HCT116 ATM-/- multicellular tumour spheroids; test: Prodrug Radiation Sensitization in Multicellular Tumour Spheroids, inhibition of pH2AX induction following radiation; assay type: cell-based; conditions: Homo sapiens, HCT-116, 20 Gy
Protocol: Prodrug compounds were assayed to determine their potency in 3D multicellular spheroids in media maintained under 20% vs 5% oxygen. Multicellular tumour spheroids were grown to approximately 0.5 mm in diameter and irradiated with 20 Gy in combination with inhibitor test compounds to determine their potency using HCT 116 and FaDu cell lines. Experiments were carried out in 96 well plates containing 0.7 mls of MEM media containing 10% FBS and 10 mM glucose under 5% CO2 at 37° C. Following dilution of compounds 1:1000 from DMSO stocks, compounds were serially diluted from 10 μM down to 3.5 nM and 5-10 spheroids added. 96 well plates were constantly stirred to avoid spheroids settling during the course of the experiment. Endpoints were pDNA-PK (ser 2056) or pH2AX (ser 139) status in spheroid cryosections taken 1 or 2 hours following radiation and fixed immediately in formalin. Using tumour cell lines deficient in ATM improved the assay signal to noise and gH2AX readout. Using this assay prodrug activity could be compared in the more oxygenated outer spheroid layers versus less oxygenated hypoxic central cell layers.

[2] = target: T1, DNA-PK phosphorylation at Serine 2056 (Homo sapiens, UniProt P78527); test: Cellular Assay for Inhibition of DNA-PK Phosphorylation at Serine 2056 in FaDu cells (sandwich ELISA, neocarzinostatin); assay type: cell-based; conditions: pSer2056 DNA-PK, Table 3
T1 construct: FaDu cells were purchased from ATCC; host or cells: FaDu
Protocol: FaDu cells were purchased from ATCC and maintained in MEM alpha medium (Life Technologies, cat. no. 12561) supplemented with 10% fetal bovine serum, and 1% GlutaMAX at 37° C. supplemented with 5% CO2. 50,000 cells were seeded to each well of a 96-well cell culture plate in 50 μL of culture medium and incubated for 16-24 hours. Three-fold serially diluted compounds were prepared in DMSO. Culture media was used to prepare compound treatments to 0.3% DMSO (dimethyl sulphoxide) content. Compound treatments were added to the cells for 1 hour prior incubation, followed by the addition of neocarzinostatin in fresh culture medium to 1 μg/mL final concentration for an additional 2 hours incubation to induce DNA DSBs (double-strand breaks). DMSO controls were incubated with fresh culture medium alone for the additional two hours incubation. The cells were then lysed and frozen at −20° C. Cell lysates were thawed on wet ice and protein concentrations quantified by BCA Protein Assay (Thermo #23225). Lysis buffer was used to normalize lysates by protein content and all lysates were then investigated by sandwich ELISA by means of DNA-PK-specific antibodies (Abcam ab44815: total DNA-PK; ab124918: phosphoserine-2056 DNA-PK) in sandwich ELISA format on the MSD S600MM platform (MesoScale Discovery). % inhibition was calculated for all data points: =1−(DATA_PT−AVERAGE(DMSO controls))/(AVERAGE(NCS controls)−AVERAGE(DMSO controls)). Logarithm of the molar concentration of compound was plotted against percent inhibition to calculate IC50 values, with curve fit settings for data fit to log(inhibitor) vs. normalized response—Variable slope using curve fit software (GraphPad Prism).

FaDu cell line = test: Prodrug Activation in Hypoxic Stirred Tumour Cell Suspensions; conditions: 10 μM, 4 hours
Protocol: Prodrug compounds were assayed to determine their stability and rate of activation in stirred cell suspensions under 0.2 vs 5% oxygen. Compounds were diluted 1:1000 from DMSO stocks to 10 μM final concentration in tumour cell suspensions (1% by cell volume) in MEM media containing 10% FBS, 10 mM glucose & 3.7 g/L sodium bicarbonate. Cell lines assayed included A253, A549, Detroit562, FaDu, HCT116, HEP G2, HT29, SCC25, SCC9, SiHa & TC32. Compounds and cells were then incubated for 4 hours under constant mixing at 37° C. under 5% CO2 and either 0.2 or 5% O2. Following the incubation period cellular activation of the compounds was assayed via MeOH extraction and HPLC quantification.

[3] = 5% O2, inner layers, read-out: Prodrug 5% O2 Inner layers EC50
[4] = 5% O2, outer layers, read-out: Prodrug 5% O2 Outer layers EC50
[5] = 20% O2, outer layers, read-out: Prodrug 20% O2 Outer layers EC50

pIC50 [2]	Fraction of prodrug converted to active form, Hypoxic 0.2% O2 (FaDu cell line)	Fraction of prodrug converted to active form, Oxic 5% O2 (FaDu cell line)	Compound	pEC50 [1, 3]	pEC50 [1, 4]	pEC50 [1, 5]
4.52 to 5.00	A (A is 0.15 to 1)	B (B is 0.05 to 0.15)	CC(Oc1cnc2cc(N3CCOCC3)nc(O[C@H]3CC[C@@H](c4cnccn4)CC3)c2c1)c1cnc([N+](=O)[O-])n1C (stereo partly shown) [LFA2041, 4-[3-[1-(3-methyl-2-nitro-imidazol-4-yl)ethoxy]-5-(4-pyrazin-2-ylcyclohexoxy)-1,6-naphthyridin-7-yl]morpholine]	6.30 to 8.00	5.00 to 6.00	5.00 to 6.00
5.00 to 6.00	A (A is 0.15 to 1)	D (D is 0 to 0.02)	CC(c1cnc([N+](=O)[O-])n1C1CC1)N(c1cnc2cc(N3CCOCC3)nc(O[C@H]3CC[C@@H](Nc4ncccn4)CC3)c2c1)S(C)(=O)=O (stereo partly shown) [LFA2055, N-[1-(3-cyclopropyl-2-nitro-imidazol-4-yl)ethyl]-N-[7-morpholino-5-[4-(pyrimidin-2-ylamino)cyclohexoxy]-1,6-naphthyridin-3-yl]methanesulfonamide]	6.30 to 8.00	6.30 to 8.00	5.00 to 6.00
5.00 to 6.00	B (B is 0.05 to 0.15)	C (C is 0.02 to 0.05)	CC(c1cnn(C)c1[N+](=O)[O-])N(c1cnc2cc(N3CCOCC3)nc(O[C@H]3CC[C@@H](Nc4ncc(OC5CCN(C)C5)cn4)CC3)c2c1)S(C)(=O)=O (stereo partly shown) [LFA2064, N-[1-(1-methyl-5-nitro-pyrazol-4-yl)ethyl]-N-[5-[4-[[5-(1-methylpyrrolidin-3-yl)oxypyrimidin-2-yl]amino]cyclohexoxy]-7-morpholino-1,6-naphthyridin-3-yl]methanesulfonamide]	6.30 to 8.00	5.00 to 6.00	5.00 to 6.00
6.00 to 7.00	A (A is 0.15 to 1)	B (B is 0.05 to 0.15)	CC(Oc1cnc2cc(N3CCOCC3)nc(O[C@H]3CC[C@@H](Nc4ncc(OCCN5CCOCC5)cn4)CC3)c2c1)c1cnc([N+](=O)[O-])n1C (stereo partly shown) [LFA2049, N-[4-[[3-[1-(3-methyl-2-nitro-imidazol-4-yl)ethoxy]-7-morpholino-1,6-naphthyridin-5-yl]oxy]cyclohexyl]-5-(2-morpholinoethoxy)pyrimidin-2-amine]	6.30 to 8.00	6.00 to 6.30	5.00 to 6.00
4.52 to 5.00	C (C is 0.02 to 0.05)	D (D is 0 to 0.02)	Cn1c(CN(c2cnc3cc(N4CCOCC4)nc(O[C@H]4CC[C@@H](Nc5cncc(C(F)(F)F)n5)CC4)c3c2)S(C)(=O)=O)cnc1[N+](=O)[O-] [LFA2101, N-[(3-methyl-2-nitro-imidazol-4-yl)methyl]-N-[7-morpholino-5-[4-[[6-(trifluoromethyl)pyrazin-2-yl]amino]cyclohexoxy]-1,6-naphthyridin-3-yl]methanesulfonamide]	4.00 to 5.00	4.00 to 5.00	4.00 to 5.00
	A (A is 0.15 to 1)	B (B is 0.05 to 0.15)	Cn1c(Cn2nnc(-c3cnc4cc(N5CCOCC5)nc(O[C@H]5CC[C@@H](Nc6ncccn6)CC5)c4c3)n2)cnc1[N+](=O)[O-] [LFA121, N-[4-[[3-[2-[(3-Methyl-2-nitro-imidazol-4-yl)methyl]tetrazol-5-yl]-7-morpholino-1,6-naphthyridin-5-yl]oxy]cyclohexyl]pyrimidin-2-amine]	6.00 to 6.30	5.00 to 6.00	5.00 to 6.00

The remaining lines, values behind:

Compound	pIC50 [2]	Fraction of prodrug converted to active form, Hypoxic 0.2% O2 (FaDu cell line)	Fraction of prodrug converted to active form, Oxic 5% O2 (FaDu cell line)	pEC50 [1, 3]	pEC50 [1, 4]	pEC50 [1, 5]
CC(c1cnn(C)c1[N+](=O)[O-])N(c1cnc2cc(N3CCOCC3)nc(OC3CCC(Nc4ccn5nccc5n4)CC3)c2c1)S(C)(=O)=O (stereo not shown) [LFA2050, N-[1-(1-methyl-5-nitro-pyrazol-4-yl)ethyl]-N-[7-morpholino-5-[4-(pyrazolo[1,5-a]pyrimidin-5-ylamino)cyclohexoxy]-1,6-naphthyridin-3-yl]methanesulfonamide]	5.00 to 6.00	B (B is 0.05 to 0.15)	B (B is 0.05 to 0.15)	6.30 to 8.00	5.00 to 6.00	5.00 to 6.00
Cc1cc(C)nc(N[C@H]2CC[C@@H](Oc3nc(N4CCOCC4)cc4ncc(OC(C)c5cnc([N+](=O)[O-])n5C)cc34)CC2)n1 (stereo partly shown) [LFA2082, 4,6-dimethyl-N-[4-[[3-[1-(3-methyl-2-nitro-imidazol-4-yl)ethoxy]-7-morpholino-1,6-naphthyridin-5-yl]oxy]cyclohexyl]pyrimidin-2-amine]	4.52 to 5.00	A (A is 0.15 to 1)	C (C is 0.02 to 0.05)	6.30 to 8.00	5.00 to 6.00	5.00 to 6.00
Cc1nc(N[C@H]2CC[C@@H](Oc3nc(N4CCOCC4)cc4ncc(N(Cc5cnc([N+](=O)[O-])n5C)S(C)(=O)=O)cc34)CC2)ccc1F [LFA2011, N-[5-[4-[(5-fluoro-6-methyl-2-pyridyl)amino]cyclohexoxy]-7-morpholino-1,6-naphthyridin-3-yl]-N-[(3-methyl-2-nitro-imidazol-4-yl)methyl]methanesulfonamide]	4.52 to 5.00	C (C is 0.02 to 0.05)	D (D is 0 to 0.02)	5.00 to 6.00	5.00 to 6.00	5.00 to 6.00
Cc1ccc(N[C@H]2CC[C@@H](Oc3nc(N4CCOCC4)cc4ncc(OC(C)c5cnc([N+](=O)[O-])n5C)cc34)CC2)nc1 (stereo partly shown) [LFA2105, 5-methyl-N-[4-[[3-[1-(3-methyl-2-nitro-imidazol-4-yl)ethoxy]-7-morpholino-1,6-naphthyridin-5-yl]oxy]cyclohexyl]pyridin-2-amine]	4.52 to 5.00	A (A is 0.15 to 1)	D (D is 0 to 0.02)	5.00 to 6.00	5.00 to 6.00	4.00 to 5.00
CN1CCC(Oc2cnc(N[C@H]3CC[C@@H](Oc4nc(N5CCOCC5)cc5ncc(N(Cc6cnn(C)c6[N+](=O)[O-])S(C)(=O)=O)cc45)CC3)nc2)C1 (stereo partly shown) [LFA2062, N-[(1-methyl-5-nitro-pyrazol-4-yl)methyl]-N-[5-[4-[[5-(1-methylpyrrolidin-3-yl)oxypyrimidin-2-yl]amino]cyclohexoxy]-7-morpholino-1,6-naphthyridin-3-yl]methanesulfonamide]	5.00 to 6.00	B (B is 0.05 to 0.15)	B (B is 0.05 to 0.15)	6.30 to 8.00	6.00 to 6.30	5.00 to 6.00
Cn1c(Cn2nnc(-c3cnc4cc(N5CCOCC5)nc(O[C@H]5CC[C@@H](n6ccnc6)CC5)c4c3)n2)cnc1[N+](=O)[O-] [LFA123, 4-[5-(4-imidazol-1-ylcyclohexoxy)-3-[2-[(3-methyl-2-nitro-imidazol-4-yl)methyl]tetrazol-5-yl]-1,6-naphthyridin-7-yl]morpholine]		A (A is 0.15 to 1)	B (B is 0.05 to 0.15)	5.00 to 6.00	5.00 to 6.00	5.00 to 6.00
